Laboratory results published in PMC8478281, “Targeting the FtsZ Allosteric Binding Site with a Novel Fluorescence Polarization Screen, Cytological and Structural Approaches for Antibacterial Discovery” (Journal of Medicinal Chemistry, 2021).
In brackets after ≈: the same amount, converted by molar mass.

Key:
[1] = test system: B. subtilis; experiment: Minimal growth inhibitory concentration (broth macrodilution), B. subtilis; format: cell-based, Bacillus subtilis; settings: Bacillus subtilis, read-out: MIC B. subtilis
Description: (§1) B. subtilis 168 and Staphylococcus spp. were grown in cation adjusted Mueller–Hinton broth (CAMHB; Becton, Dickinson and Company) at 37 °C. B. subtilis SU570 were grown in the same medium at 30 °C. In all cases, the cells were grown to an absorbance of 0.1–0.2 at 600 nm and then incubated either with the compounds or DMSO vehicle. Microscopy assays and cell measurement were performed as previously described.[31] MIC values were determined by a broth macrodilution method.[51] MBC values were determined as the lowest concentration of inhibitor at which there was a 99.9% reduction in colony-forming units/mL compared to the inoculum. To construct a S. aureus strain expressing FtsZ-mCherry, the plasmid pCN-ftsZmch[9] was electroporated into RN4220 and 0.1 μM cadmium chloride (Sigma-Aldrich) was used to induce the expression of the construct under the control of the Pcad promoter.

[2] = test system: S. aureus subsp. aureus (ATCC 25923); experiment: Minimal growth inhibitory concentration, S. aureus subsp. aureus; format: cell-based; settings: Staphylococcus aureus, ATCC25923
Description: as §1

[3] = Solubility in HEPES buffer with 2% DMSO, spectrophotometric; format: physicochemical; settings: HEPES buffer containing 2% DMSO, 25 °C, aqueous buffer, kinetic from dmso stock; HEPES buffer pH 6.8 containing 2% DMSO
Description: 3.2. Solubility of Compounds. Stock solutions of compounds were prepared in
DMSO (spectroscopic grade, Merck) a nd stored at -20 °C. Compound solubility in 50
mM HEPES-KOH, 50 mM KCl, 1 mM EDTA, pH 6.8 (HEPES buffer) containing 2%
DMSO was determined spectrophotometrically, monitoring the linear correlation
between the absorbance and the compound concentration and the absence of light
scattering. The solutions were optionally centrifuged at 100000 rpm for 20 min at 25 °C
in a TLA100 rotor with a Beckman Optima Max -XP ultracentrifuge.

[4] = test system: S. aureus Mu50; experiment: Minimal growth inhibitory concentration (broth macrodilution), S. aureus Mu50; format: cell-based, Staphylococcus aureus; settings: Staphylococcus aureus, MU50, read-out: MIC S. aureus Mu50
Description: as §1

[5] = test system: S. aureus Mu50; experiment: Minimal division inhibitory concentration, S. aureus Mu50; format: cell-based; settings: Staphylococcus aureus, MU50, read-out: MDC S. aureus Mu50
Description: as §1

[6] = test system: Staphylococcus epidermidis; experiment: Minimal growth inhibitory concentration, S. epidermidis; format: cell-based
Description: as §1

[7] = test system: Staphylococcus haemolyticus; experiment: Minimal growth inhibitory concentration, S. haemolyticus; format: cell-based
Description: as §1

[8] = test system: B. subtilis; experiment: Minimal division inhibitory concentration and cell division phenotype, B. subtilis; format: cell-based, Bacillus subtilis; settings: Bacillus subtilis, read-out: MDC B. subtilis
Description: as §1

[9] = biological target: T1, stabilized polymers of FtsZ from B. subtilis (Bacillus subtilis, UniProt P17865); experiment: Competition assay: displacement of probe (R)-5 from stabilized BsFtsZ-GMPCPP polymers; format: binding; settings: for Kd: stabilized polymers of FtsZ from B. subtilis, probe (R)-5, mean ± SEM, read-out: KD
T1 construct: made in house
Description: (§2) FtsZ (10–15 μM) was assembled in HEPES buffer, 10 mM MgCl2, 50 μM GMPCPP at 25 °C for 10 min, and then 0.15% (v/v) glutaraldehyde[36] (distilled grade for microscopy, TAAB Laboratories, U.K.) was added to the solution that was incubated at 25 °C for 10 min more. (This was the minimal glutaraldehyde concentration determined to stabilize FtsZ polymers specifically binding probe 1.) The remains of the cross-linking agent were quenched by adding 60 mM NaBH4, the sample was incubated on ice for 10 min and degassed.[36] Cross-linked polymers were centrifuged for 10 min at 8200g (5000 rpm) and 4 °C in 15 mL Falcon tubes employing a Rotina 380R (Hettich) centrifuge, the supernatant was removed and the pellet was resuspended in the same volume of HEPES buffer, 10 mM MgCl2, containing 5 μM GMPCPP. Fixed FtsZ polymers were active in binding assays after more than 2 days at 4 °C; they could also be frozen in liquid nitrogen with a small loss of binding capacity. […] Cross-linked polymers of SaFtsZ were similarly prepared.
(§3) Competition assays were performed by measuring, through the decrease in fluorescence anisotropy, the displacement of the fluorescent probes from stabilized FtsZ polymers. Increasing concentrations of competing ligands were added to the mixtures of cross-linked FtsZ polymers (10–15 μM) with probe 1 (3 μM), 7–8 μM FtsZ polymers with probe (S)-2 (3 μM), or 2–3 μM FtsZ polymers with (R)-5 (3 μM). HEPES buffer with 10 mM MgCl2 and 0.1 mM GMPCPP was employed, with a final volume of 0.5 mL, and the anisotropy measured at 25 °C. Under these conditions, the initial fraction of the probe bound was between 0.4 and 0.5. The fraction of the probe bound (Vb) was calculated [drawing 1] where rfree and rmax are the anisotropy values of the free and bound probes, respectively, and R is the ratio between the fluorescence intensities of the bound and free probe (Table S1). The binding data were plotted against the competing ligand concentration and fitted by competition equilibrium of the ligand and the probe for the same binding site. The resulting system of equations[50] was numerically solved using the Equigra v. 5.0 program,[33] which provided the best-fitted value of the competitor binding constant.

[10] = MTT cytotoxicity assay; format: cell-based; settings: human, IMR90 lung fibroblast cells, relative to vehicle; for viability at 100 µM: IMR90, 100 µM
Description: The sensitivity of the IMR90 cell line to compounds was tested through a standard 3-(4,5-dimethylthiazol-2-yl)-2,5-diphenyltetrazolium bromide (MTT) assay.[52] The results were reported as the viability percentage of the tested compound relative to vehicle (DMSO), obtained from two or three independent experiments performed in triplicate.

[11] = test system: S. aureus; experiment: Minimal bactericidal concentration; format: cell-based; settings: Staphylococcus aureus; 99.9% reduction in colony-forming units/mL
Description: as §1

[12] = biological target: T2, stabilized SaFtsZ polymers (Staphylococcus aureus, UniProt P0A031); experiment: Competition assay with stabilized SaFtsZ polymers; format: binding; settings: read-out: KD (in parenthesis) (converted)
T2 construct: Full-length S. aureus FtsZ (SaFtsZ); made in house
Description: Full-length S. aureus FtsZ (SaFtsZ) and the truncated protein SaFtsZ(12–315) were purified as described.[34] SaFtsZ was assembled in 50 mM MES, 50 mM KCl, 1 mM EDTA, pH 6.5 plus 10 mM MgCl2, and 0.1 mM GMPCPP.
as §2, §3

[13] = test system: B. subtilis 168; experiment: Cell length of B. subtilis 168 incubated with FtsZ inhibitors; format: cell-based, Bacillus subtilis; set-up: unit of the concentration uncertain; unit not given here; settings: B. subtilis 168, 3 h
Description: Figure 4 Fluorescence anisotropy screen for FtsZ allosteric inhibitors combined with cell-based methods. (A) Screen for FtsZ inhibitors employing the fluorescence anisotropy of probe (S)-2 (3 μM) and stabilized FtsZ-GMPCPP polymers (8 μM binding sites). […] Control values with the corresponding concentrations of dimethyl sulfoxide (DMSO) vehicle (2% void and gray circles; 4%, black circle) are also shown. […] Raw data plots (n ≥ 30) are shown with the mean values marked (statistics in Table S2). The cells were incubated for 3 h with each compound, and cell lengths were measured. (D) Representative phase-contrast images of cells after 3 h with 7 or 9 (0.75 mM each). (E) Cellular localization of FtsZ-GFP in B. subtilis SU570 following growth for 1.5 h in the absence (inset) and presence of 7 (0.2 mM). Bars, 10 μm.
as §1, with “MBC values were determined as the lowest concentration of inhibitor at which there was a 99.9% reduction in colony-forming units/mL compared to the inoculum.” left out, “promoter. […]” for “promoter.”

[14] = biological target: T3, stabilized FtsZ-GMPCPP polymers (BsFtsZ) (Bacillus subtilis, UniProt P17865); experiment: Competition assay: displacement of probe (S)-2 from stabilized FtsZ-GMPCPP polymers; format: binding; settings: KD, (S)-2 3 μM, 8 μM binding sites
T3 construct: made in house
Description: as §2, §3

T1 sequence (P17865 whole entry): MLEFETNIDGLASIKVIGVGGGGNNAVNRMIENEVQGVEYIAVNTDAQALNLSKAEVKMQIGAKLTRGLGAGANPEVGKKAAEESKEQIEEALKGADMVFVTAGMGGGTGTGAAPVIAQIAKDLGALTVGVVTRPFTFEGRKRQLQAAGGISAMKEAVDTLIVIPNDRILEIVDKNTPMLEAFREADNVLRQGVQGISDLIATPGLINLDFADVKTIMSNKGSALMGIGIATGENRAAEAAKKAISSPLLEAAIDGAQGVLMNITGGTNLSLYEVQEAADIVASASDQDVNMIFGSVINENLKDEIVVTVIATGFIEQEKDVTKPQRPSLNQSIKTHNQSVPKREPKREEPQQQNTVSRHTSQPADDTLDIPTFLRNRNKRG
T2 sequence (P0A031 whole entry): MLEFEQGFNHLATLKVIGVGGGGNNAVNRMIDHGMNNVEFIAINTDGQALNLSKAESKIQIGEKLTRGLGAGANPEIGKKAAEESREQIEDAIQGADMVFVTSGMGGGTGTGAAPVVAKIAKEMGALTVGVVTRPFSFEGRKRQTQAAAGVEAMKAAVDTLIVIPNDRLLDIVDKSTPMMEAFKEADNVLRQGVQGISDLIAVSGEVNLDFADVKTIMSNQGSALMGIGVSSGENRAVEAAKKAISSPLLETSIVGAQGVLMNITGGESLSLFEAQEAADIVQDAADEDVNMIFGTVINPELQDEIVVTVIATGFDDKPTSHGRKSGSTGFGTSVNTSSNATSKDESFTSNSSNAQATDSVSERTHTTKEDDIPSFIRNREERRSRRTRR
T3 sequence (P17865 whole entry): as the sequence (P17865 whole entry) above

Compound | MIC [1] | MIC [2] | solubility [3] | MIC [4] | minimal effective concentration [5] | MIC [6] | MIC [7] | minimal effective concentration [8] | Kd [9] | viability at 25 µM ([10]; IMR90, 25 µM) | MBC [11] | Kd [12] | length ([13]; 1 (unit uncertain) as printed) | length ([13]; 10 (unit uncertain) as printed) | fold weaker affinity and MDC than the (R)-enantiomer [9] | viability at 100 µM [10] | viability at 50 µM ([10]; IMR90, 50 µM) | length ([13]; 2.5 (unit uncertain) as printed) | length ([13]; 5 (unit uncertain) as printed) | Kd [14]
CCCC(COc1ccc(F)c(C(N)=O)c1F)Nc1cccc(C(F)(F)F)c1 (racemic) [rac-26, 2,6-Difluoro-3-[(2-{[3-(trifluoromethyl)phenyl]amino}pentyl)oxy]benzamide] | 5 µM (≈ 2.01 µg/mL) | 100 µM (≈ 40.2 µg/mL) | 50 µM (≈ 20.1 µg/mL) | 50 µM (≈ 20.1 µg/mL) | 25 µM | 50 µM (≈ 20.1 µg/mL) | 50 µM (≈ 20.1 µg/mL) | 2.5 µM | 1100 ± 100 nM | – | – | – | – | – | – | – | – | – | – | –
CCC[C@H](COc1ccc(F)c(C(N)=O)c1F)Nc1cccc(C(F)(F)F)c1 [(R)-26] | 2.5 µM (≈ 1.01 µg/mL) | 25 µM (≈ 10.1 µg/mL) | 100 µM (≈ 40.2 µg/mL) | 25 µM (≈ 10.1 µg/mL) | 10 µM | 25 µM (≈ 10.1 µg/mL) | 25 µM (≈ 10.1 µg/mL) | 1 µM | 200 ± 100 nM | 100 ± 1% | 25 µM (≈ 10.1 µg/mL) | < 100 nM | 17.6 ±0.8 | – | – | – | – | – | – | –
CCC[C@@H](COc1ccc(F)c(C(N)=O)c1F)Nc1cccc(C(F)(F)F)c1 [(S)-26] | 50 µM (≈ 20.1 µg/mL) | – | 100 µM (≈ 40.2 µg/mL) | 100 µM (≈ 40.2 µg/mL) | 100 µM | – | – | > 10 µM | 3800 ± 200 nM | – | – | 7000 nM | – | 4.9 ± 0.2 | 10–20 fold | – | – | – | – | –
NC(=O)c1c(F)ccc(OCc2cccc(Cl)c2)c1F [Compound 18, 3-[(3-Chlorobenzyl)oxy]-2,6-difluorobenzamide] | 25 µM (≈ 7.44 µg/mL) | – | ≥ 100 µM | 100 µM (≈ 29.8 µg/mL) | 50 µM | – | – | 10 µM | 1300 ± 100 nM | – | 100 µM (≈ 29.8 µg/mL) | – | – | – | – | 90 ± 7% | – | – | – | –
NC(=O)c1c(F)ccc(OCc2cccc(C(F)(F)F)c2)c1F [Compound 20, 2,6-Difluoro-3-{[3-(trifluoromethyl)benzyl]oxy}benzamide] | 25 µM (≈ 8.28 µg/mL) | 25 µM (≈ 8.28 µg/mL) | 50 µM (≈ 16.6 µg/mL) | 50 µM (≈ 16.6 µg/mL) | 50 µM | 25 µM (≈ 8.28 µg/mL) | 25 µM (≈ 8.28 µg/mL) | 10 µM | 700 ± 200 nM | – | 100 µM (≈ 33.1 µg/mL) | 700 ± 200 nM | – | – | – | – | 84 ± 5% | – | – | –
NC(=O)c1c(F)ccc(OCCNc2cccc(C(F)(F)F)c2)c1F [Compound 25, 2,6-Difluoro-3-(2-{[3-(trifluoromethyl)phenyl]amino}ethoxy)benzamide] | 10 µM (≈ 3.6 µg/mL) | – | 100 µM (≈ 36 µg/mL) | 100 µM (≈ 36 µg/mL) | 50 µM | – | – | 5 µM | 1900 ± 200 nM | – | 100 µM (≈ 36 µg/mL) | 300 nM | – | – | – | 88 ± 1% | – | 4.8 ± 0.1 | 27.4 ±0.9 | –
NC(=O)c1c(F)ccc(OCc2nc3cc(Cl)cnc3s2)c1F [PC190723, reference compound] | 5 µM (≈ 1.78 µg/mL) | – | 10 µM (≈ 3.56 µg/mL) | 5 µM (≈ 1.78 µg/mL) | 1 µM | – | – | 2.5 µM | < 100 nM | – | 5 µM (≈ 1.78 µg/mL) | < 100 nM | – | – | – | – | – | – | – | < 100 nM
